Target: T1, AXOR109 (Homo sapiens, UniProt Q8TDU6)
T1 construct: expressed in transfected cells; host or cells: melanophore cells, transfected by electroporation
T1 sequence (Q8TDU6 1-330): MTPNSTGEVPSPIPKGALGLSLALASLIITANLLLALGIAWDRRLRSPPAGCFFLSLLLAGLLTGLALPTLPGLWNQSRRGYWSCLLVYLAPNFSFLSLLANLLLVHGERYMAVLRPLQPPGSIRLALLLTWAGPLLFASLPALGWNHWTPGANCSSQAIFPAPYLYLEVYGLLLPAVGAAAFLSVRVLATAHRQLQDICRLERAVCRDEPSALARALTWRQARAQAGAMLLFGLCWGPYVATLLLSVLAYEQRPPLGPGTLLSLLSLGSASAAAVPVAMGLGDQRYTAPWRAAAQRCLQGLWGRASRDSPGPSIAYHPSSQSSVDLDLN
Assay: Human AXOR109/Melanophore Assay
Type: cell-based
Conditions: melanophore assay; for Emax: 1 h; for EC50: AXOR109 transfected melanophores
Procedure: AXOR109 is a Gs-coupled receptor and therefore increases intracellular cAMP leading to melanosome dispersion. Compounds of the present invention were characterized in a melanophore assay as described in Jayawickreme C K, et al., Current Protocols in Pharmacology (2005) 12.9.1-12.9.16. Briefly, melanophore cells are transfected by electroporation with AXOR109 expressing cDNA. Cells are then plated in 384 well clear bottom plates at 8E3 cells per well in 50 μl of conditioned fibroblast media (CFM). Compounds to be tested are serially diluted 3-fold in DMSO and further diluted 1:100 with melanophore assay buffer (MAB)+10 nM Melatonin to yield 11 point concentration response curves. Following 2 hour incubation with MAB+1% DMSO+10 nM Melatonin, initial transmittance is read on a TwisterII/Spectramax plate reader. Compounds are then added to the cells and incubated for 1 hour, and final transmittance is read as before. Results are compared to vehicle (MAB+1% DMSO+10 nM Melatonin) and to a positive control (MAB+1% DMSO+10 nM Melatonin+200 nM alpha-MSH). Data are calculated for each well as follows: 1-(Transmitance-final/Transmitance-initial). Each well result is then normalized to alpha-MSH, the system max control for Gs/Gq coupled receptors using the following equation: (ObjX−Control1)/(Control2−Control1)*100. The percent system max is used to generate the pEC50 using the equation: y=((Vmax*x̂n)/(K̂n+x̂n))+Y2. Acceptable Z-prime values should be >0.4. Compounds of the present invention have a pEC50≧5.0 in the above described assay.

[1] = normalized to alpha-MSH system max

Row | Emax [1] [%] | EC50 [nM] | % Max [1] | Compound
1 | 76 to 100 | 126 to 1000 |  | COc1ccc(S(=O)(=O)N(C)CCN(C2CC2)S(=O)(=O)c2ccc(OC)c(OC)c2)cc1OC [Example 88]
2 | 0 to 50 | 1260 to 10000 |  | COc1ccc(S(=O)(=O)NC2CCCCN(S(=O)(=O)c3ccc(OC)c(OC)c3)C2)cc1OC (centres unmarked) [Example 25, N-(1-{[3,4-bis(methyloxy)phenyl]sulfonyl}hexahydro-1H-azepin-3-yl)-3,4-bis(methyloxy)benzenesulfonamide]
3 | 51 to 75 | 1260 to 10000 |  | COc1ccc(S(=O)(=O)N2CCN(S(=O)(=O)c3ccc(OC)c(OC)c3)C(=O)C2)cc1OC [Example 76, 1,4-bis{[3,4-bis(methyloxy)phenyl]sulfonyl}-2-piperazinone]
4 | 51 to 75 | 1260 to 10000 |  | COc1ccc(S(=O)(=O)N2[C@H](C)CN(S(=O)(=O)c3ccc(-c4cnco4)cc3)C[C@@H]2C)cc1OC [Example 34, 1-{[3,4-bis(methyloxy)phenyl]sulfonyl}-2,6-cis-dimethyl-4-{[4-(1,3-oxazol-5-yl)phenyl]sulfonyl}piperazine]
5 | 76 to 100 | 1260 to 10000 |  | CCN([C@H]1CCN(S(=O)(=O)c2ccc(OC)c(OC)c2)C1)S(=O)(=O)c1ccc(OC)c(OC)c1 [Example 62, N-((3S)-1-{[3,4-bis(methyloxy)phenyl]sulfonyl}-3-pyrrolidinyl)-N-ethyl-3,4-bis(methyloxy)benzenesulfonamide]
6 |  | < 126 |  | COc1ccc(S(=O)(=O)N2C[C@H](C)N(S(=O)(=O)c3ccc(OC)c(OC)c3)C[C@@H]2C)cc1OC [Example 47, (2S,5S)-1,4-bis{[3,4-bis(methyloxy)phenyl]sulfonyl}-2,5-dimethylpiperazine]
7 | 51 to 75 | 1260 to 10000 |  | COc1ccc(S(=O)(=O)N2CCN(S(=O)(=O)c3ccc4c(c3)OCCO4)CC2)cc1OC [Example 78, 1-{[3,4-bis(methyloxy)phenyl]sulfonyl}-4-(2,3-dihydro-1,4-benzodioxin-6-ylsulfonyl)piperazine]
8 | 51 to 75 | 126 to 1000 |  | COc1ccc(S(=O)(=O)N2C[C@@H](C)N(S(=O)(=O)c3ccc(OC)c(OC)c3)[C@@H](C)C2)cc1F [Example 32, 1-{[3,4-bis(methyloxy)phenyl]sulfonyl}-4-{[3-fluoro-4-(methyloxy)phenyl]sulfonyl}-2,6-cis-dimethylpiperazine]
9 | 0 to 50 | 1260 to 10000 |  | COc1ccc(S(=O)(=O)N2C[C@@H](C)N(S(=O)(=O)c3ccc4oc(=O)ccc4c3)[C@@H](C)C2)cc1OC [Example 37, 6-[(4-{[3,4-bis(methyloxy)phenyl]sulfonyl}-2,6-cis-dimethyl-1-piperazinyl)sulfonyl]-2H-chromen-2-one]
10 |  | 1260 to 10000 |  | COc1ccc(S(=O)(=O)N2C[C@H](C)N(S(=O)(=O)c3ccc(OS(C)(=O)=O)c(OC)c3)C[C@@H]2C)cc1OC [Example 63, 4-[((2S,5S)-4-{[3,4-bis(methyloxy)phenyl]sulfonyl}-2,5-dimethyl-1-piperazinyl)sulfonyl]-2-(methyloxy)phenyl methanesulfonate]
11 | 51 to 75 | 1260 to 10000 |  | COc1ccc(S(=O)(=O)N2CCCN(S(=O)(=O)c3ccc(OC)c(OC)c3)C(C)C2)cc1OC (centres unmarked) [Example 49, 1,4-bis{[3,4-bis(methyloxy)phenyl]sulfonyl}-2-methylhexahydro-1H-1,4-diazepine]
12 |  | 126 to 1000 | * (“*” = 0% to 50%) | COc1ccc(S(=O)(=O)N2C[C@@H](C)N(S(=O)(=O)c3ccc(OC)c(OC)c3)[C@@H](C)C2)cc1OC [Example 54, (2R,6S)-1,4-bis{[3,4-bis(methyloxy)phenyl]sulfonyl}-2,6-dimethylpiperazine]
13 | 76 to 100 | 126 to 1000 |  | CCCN(C[C@@H]1CCCN1S(=O)(=O)c1ccc(OC)c(OC)c1)S(=O)(=O)c1ccc(OC)c(OC)c1 [Example 96, N-[((2S)-1-{[3,4-bis(methyloxy)phenyl]sulfonyl}-2-pyrrolidinyl)methyl]-3,4-bis(methyloxy)-N-propylbenzenesulfonamide]
14 | 51 to 75 | 126 to 1000 |  | COc1ccc(S(=O)(=O)N2C[C@@H](C)N(S(=O)(=O)c3ccc(OC)c(OC)c3)[C@@H](C)C2)cc1 [Example 35, 1-{[3,4-bis(methyloxy)phenyl]sulfonyl}-2,6-cis-dimethyl-4-{[4-(methyloxy)phenyl]sulfonyl}piperazine]
15 | 76 to 100 | 1260 to 10000 |  | COc1ccc(S(=O)(=O)NCCNS(=O)(=O)c2ccc(OC)c(OC)c2)cc1OC [Example 26, N,N′-1,2-ethanediylbis[3,4-bis(methyloxy)benzenesulfonamide]]
16 | 0 to 50 | 126 to 1000 |  | COc1ccc(S(=O)(=O)N2CCN(S(=O)(=O)c3ccc(OC)c(OC)c3)CC2)cc1 [Example 6, 1-{[3,4-bis(methyloxy)phenyl]sulfonyl}-4-{[4-(methyloxy)phenyl]sulfonyl}piperazine]
17 | 51 to 75 | 1260 to 10000 |  | COc1cccc(S(=O)(=O)N2[C@H](C)CN(S(=O)(=O)c3ccc(OC)c(OC)c3)C[C@@H]2C)c1 [Example 80]
18 | 51 to 75 | 1260 to 10000 |  | COc1ccc(S(=O)(=O)N2CCN(S(=O)(=O)c3ccc(OC)c(OC)c3)C(C3CCCCC3)C2)cc1OC (centres unmarked) [Example 24, 1,4-bis{[3,4-bis(methyloxy)phenyl]sulfonyl}-2-cyclohexylpiperazine]
19 | 76 to 100 | 1260 to 10000 |  | COc1ccc(S(=O)(=O)N[C@@H]2CCN(S(=O)(=O)c3ccc(OC)c(OC)c3)C2)cc1OC [Example 77, N-((3R)-1-{[3,4-bis(methyloxy)phenyl]sulfonyl}-3-pyrrolidinyl)-3,4-bis(methyloxy)benzenesulfonamide]
20 | 76 to 100 | < 126 |  | COc1ccc(S(=O)(=O)N(C)C[C@H]2CCCN2S(=O)(=O)c2ccc(OC)c(OC)c2)cc1OC [Example 97, N-[((2R)-1-{[3,4-bis(methyloxy)phenyl]sulfonyl}-2-pyrrolidinyl)methyl]-N-methyl-3,4-bis(methyloxy)benzenesulfonamide]
21 | 51 to 75 | 1260 to 10000 |  | COc1ccc(S(=O)(=O)N2CCN(S(=O)(=O)c3ccc(OC)c(OC)c3)CC2)cc1OC [Example 4, 1,4-bis{[3,4-bis(methyloxy)phenyl]sulfonyl}piperazine]
22 | 76 to 100 | 1260 to 10000 |  | COc1ccc(S(=O)(=O)N2CCN(S(=O)(=O)c3c(C)cccc3Cl)CC2)cc1OC [Example 5, 1-{[3,4-bis(methyloxy)phenyl]sulfonyl}-4-[(2-chloro-6-methylphenyl)sulfonyl]piperazine]
23 | 76 to 100 | 126 to 1000 |  | CC=CCN(CCN(C)S(=O)(=O)c1ccc(OC)c(OC)c1)S(=O)(=O)c1ccc(OC)c(OC)c1 [Example 75, N-{2-[{[3,4-bis(methyloxy)phenyl]sulfonyl}(2-buten-1-yl)amino]ethyl}-N-methyl-3,4-bis(methyloxy)benzenesulfonamide]
24 | 76 to 100 | 126 to 1000 |  | CCCN([C@@H]1CCN(S(=O)(=O)c2ccc(OC)c(OC)c2)C1)S(=O)(=O)c1ccc(OC)c(OC)c1 [Example 59, N-((3R)-1-{[3,4-bis(methyloxy)phenyl]sulfonyl}-3-pyrrolidinyl)-3,4-bis(methyloxy)-N-propylbenzenesulfonamide]
25 | 51 to 75 | 1260 to 10000 |  | COc1ccc(S(=O)(=O)N2CCC(N(CC(C)C)S(=O)(=O)c3ccc(OC)c(OC)c3)C2)cc1OC (centres unmarked) [Example 57, N-(1-{[3,4-bis(methyloxy)phenyl]sulfonyl}-3-pyrrolidinyl)-3,4-bis(methyloxy)-N-(2-methylpropyl)benzenesulfonamide]
26 | 76 to 100 | 1260 to 10000 |  | COc1ccc(S(=O)(=O)N2CCN(S(=O)(=O)c3ccc(OC)c(OC)c3)[C@@H](C)C2)cc1OC [Example 19, (2S)-1,4-bis{[3,4-bis(methyloxy)phenyl]sulfonyl}-2-methylpiperazine]
27 | 51 to 75 | 126 to 1000 |  | COc1ccc(S(=O)(=O)N2CCN(S(=O)(=O)c3ccc(OC)c(OC)c3)CC(F)(F)C2)cc1OC [Example 53, 1,4-bis{[3,4-bis(methyloxy)phenyl]sulfonyl}-6,6-difluorohexahydro-1H-1,4-diazepine]
28 | 0 to 50 | 1260 to 10000 |  | COc1ccc(S(=O)(=O)N2CC(C)N(S(=O)(=O)c3ccc(OC)c(OC)c3)C(C)C2C)cc1OC (centres unmarked) [Example 39, 1,4-bis{[3,4-bis(methyloxy)phenyl]sulfonyl}-2,3,5-trimethylpiperazine]
29 | > 100 | 126 to 1000 |  | COc1ccc(S(=O)(=O)N2C[C@H](C)N(S(=O)(=O)c3ccc(OC)c(OC)c3)C[C@@H]2C)cc1 [Example 72, (2S,5S)-1-{[3,4-bis(methyloxy)phenyl]sulfonyl}-2,5-dimethyl-4-{[4-(methyloxy)phenyl]sulfonyl}piperazine]

— patent US20090069302A1 (SMITHKLINE BEECHAM CORPORATION, priority 2006, published 2009)
